“Also recorded” adds a separate entry of the source. Where a SMILES comes first, the peptide text is derived from it. [ ]: non-standard residue; d: D form. The star is where a group is joined. Sta = CC(C)C[C@H](N)[C@@H](O)CC(=O)O; Isovaleryl = CC(C)CC(=O)*; Cbz = O=C(OCc1ccccc1)*
Tests used:
KJL-2 cells [1] = experiment: TNFα-induced firefly luciferase (FL) / Renilla luciferase (RL) reporter gene assay (DUAL-GLO) in vinblastin-treated, frozen and thawed KJL-2 cells; assay type: cell-based, human; settings: for FL/RL ratio: scavengers/chelators of reactive oxygen species, cells treated 10 minutes
Description: The X-axis is TNFα, ng/ml.
KJL-2 cells were used in all experiments (carried out to date). […] In order to reduce the formation of ice crystals and subsequent cell lysis, all experimental groups were frozen using the alcohol-free Biocison controlled freezing system that cools cells at approximately 1.0° C./minute.

KJL-2 cells [2] = experiment: Staurosporine-induced apoptosis: FL and RL activity in KJL-2 cells; assay type: cell-based, human; settings: 10 micromolar staurosporine, over 24 hours
Description: Briefly, untreated cells or cells treated with vinblastin as described in WO 2004/039990; US 2004/0235157 and U.S. Pat. No. 7,470,536 were treated for 10 minutes with substances that inhibit the formation of reactive oxygen species and/or scavengers of reactive oxygen species either alone or concomitantly with vinblastin treatment. The cells were then frozen using the cryopreservative medium described in WO 2004/039990; US 2004/0235157 and U.S. Pat. No. 7,470,536 with or without substances that inhibit the formation of reactive oxygen species and/or scavengers of reactive oxygen species. KJL-2 cells were used in all experiments (carried out to date). All groups were treated with vinblastin using the same procedure as described in WO 2004/039990; US 2004/0235157 and U.S. Pat. No. 7,470,536. In order to reduce the formation of ice crystals and subsequent cell lysis, all experimental groups were frozen using the alcohol-free Biocison controlled freezing system that cools cells at approximately 1.0° C./minute. All assays were performed using DUAL-GLO (Promega, Catalogue No 2920) that allows Firefly luciferase (FL) and Renilla luciferase (RL) activity to be determined sequentially in the same well of a microtiter plate.

[3] = substances that reduce H2O2 (COX inhibitors)
[4] = pre-treatment of cells with proteasome inhibitor
[5] = NAC both during treatment with vinblastin and in the cryopreservative medium
[6] = pre-treatment of cells with protease inhibitor and addition to the freezing medium

With `CC(=O)Oc1ccccc1C(=O)O` [Acetylsalicylic acid, acetylsalicylic acid] the FL activity (KJL-2 cells [1]; [3]) was “increased FL activity marginally”.
With `N[C@@H](CCC(=O)N[C@@H](CS)C(=O)NCC(=O)O)C(=O)O` [GSH, glutathione SH] the “vial-to-vial variation in normalized RLU and normalized fold induction” value (KJL-2 cells [1]; 1 mM GSH, FIGS. 5A and 5B) was “appeared to be effective in reducing vial-to-vial variation” and the “vial-to-vial variation in normalized RLU and normalized fold induction” value (KJL-2 cells [1]; 1 mM GSH, FIGS. 5A and 5B, listed as glutathione SH) was “higher degree of variability in FL readings”.
With `CC(C)C[C@@H](C=O)NC(=O)[C@H](CC(C)C)NC(=O)[C@H](CC(C)C)NC(=O)OCc1ccccc1` [MG-132] (Cbz-Leu-Leu-Leu-aldehyde) the FL activity (KJL-2 cells [1]; [4]) was “did not increase FL activity significantly; also recorded: reduced FL activity”.
With `OC[C@@H](O)[C@@H](O)[C@H](O)[C@H](O)CO` [Mannitol] the FL/RL ratio (KJL-2 cells [1]) was “without effect”.
In the case of `CC(=O)N[C@@H](CSSC[C@H](N)C(=O)O)C(=O)O` [N-acetylcystine], the “vial-to-vial variation in normalized RLU and normalized fold induction” value (KJL-2 cells [1]; 5 mM NAC, FIGS. 6A and 6B) was “superior to GSH treatment in reducing vial-to-vial variation”, the “lot-to-lot variation in the performance of assay-ready frozen cells” value (KJL-2 cells [1]; [5]) was “markedly reducing” and the “vial-to-vial variation in the performance of assay-ready frozen cells” value (KJL-2 cells [1]; [5]) was “markedly reducing”.
In the case of `O=S(=O)(F)Cc1ccccc1` [PMSF], the FL activity (KJL-2 cells [1]; [6]) was “did not significantly increase FL activity”.
In the case of `CC(C)CC(=O)N[C@H](C(=O)N[C@H](C(=O)N[C@@H](CC(C)C)[C@@H](O)CC(=O)N[C@@H](C)C(=O)N[C@@H](CC(C)C)[C@@H](O)CC(=O)O)C(C)C)C(C)C` [Pepstatin A] (Isovaleryl-VV[Sta]A[Sta]-OH), the FL activity (KJL-2 cells [1]; [6]) was “did not significantly increase FL activity”.
With `CC1(C)CC(O)CC(C)(C)N1[O]` [TEMPOL] the FL/RL ratio (KJL-2 cells [1]) was “without effect”.
With `O=S(=O)(O)c1cc(O)c(O)c(S(=O)(=O)O)c1` [Tiron] the FL/RL ratio (KJL-2 cells [1]) was “without effect”.
For `CS(=O)(=O)c1ccc(C2=C(c3ccccc3)C(=O)OC2)cc1` [VIOXX, rofecoxib], the FL activity (KJL-2 cells [1]; [3]) was “increased FL activity marginally”.
In the case of `Oc1ncnc2[nH]ncc12` [allopurinol], the “FL values (RLU)” value (KJL-2 cells [1]; 100 μM allopurinol in cryopreservative, frozen one day or 5 days, vs control, FIGS. 1A and 1B) was “significantly increases FL values”, the “intra-vial (vial to vial) variation in normalized RLU and normalized fold induction” value (KJL-2 cells [1]; 100 μM allopurinol, relative to cells treated with vinblastin alone, FIGS. 3A-4B) was “reduced intra-vial variation” and the “form of the TNFα dose response curve” value (KJL-2 cells [1]; 100 μM allopurinol, TNFα of 10 ng/ml and higher, FIGS. 4A and 4B) was “some alteration of the form of the TNFα dose response curve”.
For `Cl.N` [ammonium chloride], the FL activity (KJL-2 cells [1]; [6]) was “did not significantly increase FL activity”.
`CC[C@H](C)[C@H](NC(=O)[C@H]([C@@H](C)CC)N(C)C(C)=O)C(=O)N[C@H](C(=O)N[C@@H](CC(C)C)C(=O)[C@@]1(C)CO1)[C@@H](C)O` [epoxomicin] was tested, and the FL activity (KJL-2 cells [1]; [4]) was “did not increase FL activity significantly”.
In the case of `CC(=O)N[C@@H](CSC(=O)[C@]1([C@@H](O)C(C)C)NC(=O)[C@H](C)[C@@H]1O)C(=O)O` [lactacystin], the FL activity (KJL-2 cells [1]; [4]) was “did not increase FL activity significantly”.
For `CN[C@@H]1C[C@H]2O[C@@](C)([C@@H]1OC)n1c3ccccc3c3c4c(c5c6ccccc6n2c5c31)C(=O)NC4` [staurosporine], the FL activity (KJL-2 cells [2]) was “inhibits FL activity progressively” and the RL activity (KJL-2 cells [2]) was “remains fairly constant”.
In the case of `NCCNCCNCCNCCN` [tetra ethylenepentamine], the FL/RL ratio (KJL-2 cells [1]) was “without effect”.
MNTMPyP was tested, and the FL/RL ratio (KJL-2 cells [1]) was “without effect”.
